Measured values reported in patent US7842316B2, “Cosmetic compositions having extracts of Amomum melegueta and methods of treating skin” (Avon Products, Inc., priority 2007, dated 2010).

Molecular target: T1, COX-2 (Ovis aries, UniProt P79208)
T1 sequence (P79208 17-603): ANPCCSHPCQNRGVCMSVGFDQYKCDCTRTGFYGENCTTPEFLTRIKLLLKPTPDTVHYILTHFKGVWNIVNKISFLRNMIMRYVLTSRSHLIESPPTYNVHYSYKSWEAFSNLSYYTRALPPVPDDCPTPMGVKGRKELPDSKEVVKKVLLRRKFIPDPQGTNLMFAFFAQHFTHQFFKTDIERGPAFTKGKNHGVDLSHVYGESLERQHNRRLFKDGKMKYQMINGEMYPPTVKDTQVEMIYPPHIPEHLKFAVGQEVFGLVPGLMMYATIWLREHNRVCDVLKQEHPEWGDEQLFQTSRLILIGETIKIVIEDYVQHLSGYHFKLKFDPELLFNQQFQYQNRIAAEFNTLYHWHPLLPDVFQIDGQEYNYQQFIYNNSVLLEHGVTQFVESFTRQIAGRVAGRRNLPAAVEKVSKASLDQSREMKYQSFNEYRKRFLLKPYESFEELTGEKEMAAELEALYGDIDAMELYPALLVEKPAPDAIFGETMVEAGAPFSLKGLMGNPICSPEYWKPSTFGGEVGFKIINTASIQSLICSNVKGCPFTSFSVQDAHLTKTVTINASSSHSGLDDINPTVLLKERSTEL
Test: colorimetric COX (ovine) inhibitor screening assay
Format: biochemical
Details: Vioxx used as positive control; concentration not given

level of inhibition (COX-2 inhibitory activity), positive control: 90%
Structure (SMILES): CS(=O)(=O)c1ccc(C2=C(c3ccccc3)C(=O)OC2)cc1 [Vioxx]
